Experimental data published in patent US10696707B2, “Polyene macrolide derivative” (Shionogi & Co., Ltd., priority 2014, dated 2020).
In brackets after ≈: the same amount, converted by molar mass. Like-named read-outs stand apart in the source and are kept apart here.

Assays:
[1] = tested on: red blood cells (5% RBC suspension); assay: Test Example 2-2: in vitro hemolytic activity test (upper limit 200 μmol/L); format: cell-based; settings: read-out: hemolysis IC50
Protocol: Nephrotoxic potentials of the compounds of the present invention whose X is —N(R^F)—CO—X^1 and X^1 is the group represented by formula (III) and T is —N(R^a5)— were investigated by in vitro hemolytic activity test under the condition that the upper limit was 200 μmol/L as the required concentration to 50% of hemolysis (IC50).
Defibrinated sterile blood was centrifuged at 700×g for 3 minutes and, and the supernatant was removed for 100% of red blood cells. After the cleaning with physiological saline, the washed blood cells was suspended in the medium (Earle's balanced salt sodium, bicarbonate, 0.1 g/L L-glutamine without phenol red), and was diluted by 5% (5% RBC suspension).
The washed blood was diluted by 5% in water for injection (solution of complete hemolysis), and was used as the indication of optical density for complete hemolysis.
The compounds of the present invention solution in DMSO (several and doubling dilutions starting from 10 mmol/L), DMSO as the negative control, and Amphotericin B as the positive control were used, and each 5 μL of these was added in to a well of V-form 96 well type microplate. Finally, the maximum concentration of the compounds of the present invention solution in DMSO was 200 μmol/L by adding 245 μL of the medium or 5% RBC suspension into the well.
Two hundred fifty μL of the solution of complete hemolysis was added into another well and the microplate was incubated at 37° C. in 5% of CO2 concentration for an hour.
After the incubation, each 100 μL of supernatants in wells was collected by centrifugation of the microplate at 300×g for 5 minutes and was located on a well of flat-form 96 well type microplate. An absorbance of each supernatant was measured at wavelength of 540 nm.
Percent hemolysis was calculated by using the followed equation. The required concentration to 50% of hemolysis (IC50) was calculated based on the percent hemolysis. […] Hemolysis (%)=(CR−VM)×100÷(VL−VR) Where:
CR: Absorbance of 5% RBC suspension incubated with the compounds of the present invention solution in DMSO
VM: Absorbance of medium incubated with the compounds of the present invention solution in DMSO
VL: Absorbance of solution of complete hemolysis
VR: Absorbance of 5% RBC suspension incubated with DMSO
The “>200” in the table means above IC50 value exceeded the upper concentration 200 μmol/L.

[2] = tested on: C. albicans ATCC90028; assay: Antifungal activity test, MIC by broth microdilution (CLSI M27-A3); format: cell-based
Method in brief: (§1)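 CLSI broth microdilution in RPMI 1640 with 2% glucose, 0.165 mol/L MOPS, pH 7.0; two-fold DMSO dilutions. MIC = lowest concentration giving 100% inhibition versus growth control.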

[3] = tested on: A. flavus ATCC204304; assay: Antifungal activity test, MIC by broth microdilution (CLSI M38-A2); format: cell-based
Method in brief: as §1

[4] = tested on: A. fumigatus ATCC204305; assay: as above; format: cell-based
Method in brief: as §1

[5] = Test Example 4: nephrotoxicity, kidney marker gene expression by quantitative RT-PCR after intravenous administration; format: in vivo; settings: mouse, kidney, mice, nephrotoxicity positive when ΔΔCt of two-third of target genes (Kim1, Timp1, Lcn2) >3
Protocol: The expression level of marker genes for nephrotoxicity was determined by quantitative RT-PCR to evaluate nephrotoxicity of the compound of the present invention. The compound of the present invention or vehicle was intravenously administered to mice and their kidneys were isolated. After removal of the kidney capsule, all of the kidneys were sliced into two equal halves, and stored at −80° C. in RNAlater® (Ambion) until use. Samples were disrupted and homogenized in QIAzol Lysis Reagent with TissueLyser (Qiagen), and total RNA was extracted using an RNeasy® Mini kit (Qiagen). Total RNA concentrations were determined to read OD260 by absorptiometer.
The level of expression of the following target genes was determined using one-step quantitative real-time PCR: Kim1, Timp1, and Lcn2. Total RNA (80 ng/2 μL) was used as the template, and TaqMan Gene Expression Assays (Applied Biosystems, for Haver1 (Kim1), assay ID: Mm00506686_m1; Timp1, Mm01341361_m1; Lcn2, Mm01324470_m1) or TaqMan Endogenous Controls (Gapdh, predesigned assay reagent supplied by ABI, Applied Biosystems) were employed as gene-specific probe and primer sets. Quantitative RT-PCR was performed using a QuantiTect™ Probe RT-PCR kit (Qiagen), and transcript levels were quantitated with an Applied Biosystems 7900HT Fast Real Time PCR System (Applied Biosystems). Reverse transcription and amplification conditions were set as follows: 50° C. for 30 min, 95° C. for 15 min, followed by 40 cycles at 95° C. for 15 s and 60° C. for 1 min. The resulting cycle threshold (Ct) value was processed based on the comparative Ct method (ΔΔCt Method), where Gapdh was used as an endogenous reference gene to normalize the expression level of target genes.
The ΔCt was calculated as follows: Ct, Gapdh−Ct, target gene.
The ΔΔCt was calculated as follows: ΔCt, treated sample−ΔCt, average of vehicle control sample.
Higher ΔΔCt values indicate higher expression rates of the target gene and therefore high risk for nephrotoxicity.

[6] = tested on: red blood cells (5% RBC suspension); assay: Test Example 2-1: in vitro hemolytic activity test (upper limit 50, 80, 100 or 200 μmol/L); format: cell-based; settings: Erythrocyte, 1 h, read-out: hemolysis IC50
Method in brief: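 A 5% suspension of washed red cells in Earle's medium was exposed to doubling dilutions of compound from DMSO, with maxima of 50, 80, 100 or 200 μmol/L final, for 1 h at 37 °C, 5% CO2. Supernatant absorbance at 540 nm was normalised to water-lysed cells. IC50 is the concentration giving 50% hemolysis; ">" values exceed the top concentration.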

[7] = Test Example 2-2, hemolysis method 200 (upper concentration 200 μmol/L), 5% RBC suspension, 37° C., one hour
[8] = C. albicans ATCC90028, broth microdilution, 35° C., 24-48 hours, 100% inhibition
[9] = A. flavus ATCC204304, broth microdilution, 35° C., 24-48 hours, 100% inhibition
[10] = A. fumigatus ATCC204305, broth microdilution, 35° C., 24-48 hours, 100% inhibition
[11] = Erythrocyte, 1 h, Test Example 2-2, hemolysis method 200 (upper concentration 200 μmol/L), 5% RBC suspension, 37° C., one hour
[12] = Candida albicans, C. albicans ATCC90028, broth microdilution, 35° C., 24-48 hours, 100% inhibition, read-out: MIC
[13] = Aspergillus flavus, A. flavus ATCC204304, broth microdilution, 35° C., 24-48 hours, 100% inhibition, read-out: MIC
[14] = Aspergillus fumigatus, A. fumigatus ATCC204305, broth microdilution, 35° C., 24-48 hours, 100% inhibition, read-out: MIC

Row | SMILES | IC50 [1, 7] [µM] | MIC [2, 8] [mg/L] | MIC [3, 9] [mg/L] | MIC [4, 10] [mg/L] | also measured
1 | C[C@@H]1[C@H](O)[C@@H](C)/C=C/C=C/C=C/C=C/C=C/C=C/C=C/[C@H](O[C@@H]2O[C@H](C)[C@@H](O)[C@H](N)[C@@H]2O)C[C@@H]2O[C@](O)(C[C@@H](O)C[C@@H](O)[C@H](O)CC[C@@H](O)C[C@@H](O)CC(=O)O[C@H]1C)C[C@H](O)[C@H]2NC(=O)NNC=O [I-43] | > 200 | 0.25 (≈ 0.255 µM) | 1 (≈ 1.02 µM) | 1 (≈ 1.02 µM) | –
2 | C[C@@H]1[C@H](O)[C@@H](C)/C=C/C=C/C=C/C=C/C=C/C=C/C=C/[C@H](O[C@@H]2O[C@H](C)[C@@H](O)[C@H](N)[C@@H]2O)C[C@@H]2O[C@](O)(C[C@@H](O)C[C@@H](O)[C@H](O)CC[C@@H](O)C[C@@H](O)CC(=O)O[C@H]1C)C[C@H](O)[C@H]2NC(=O)NNC(=O)c1cccnc1 [I-45] | > 200 | 0.25 (≈ 0.236 µM) | 0.5 (≈ 0.472 µM) | 1 (≈ 0.945 µM) | –
3 | C[C@@H]1[C@H](O)[C@@H](C)/C=C/C=C/C=C/C=C/C=C/C=C/C=C/[C@H](O[C@@H]2O[C@H](C)[C@@H](O)[C@H](N)[C@@H]2O)C[C@@H]2O[C@](O)(C[C@@H](O)C[C@@H](O)[C@H](O)CC[C@@H](O)C[C@@H](O)CC(=O)O[C@H]1C)C[C@H](O)[C@H]2NC(=O)NNC(N)=O [I-60] | – | – | – | – | IC50 ([1]; Erythrocyte, 1 h): > 200 µM; MIC ([2]; Candida albicans, ATCC90028): 0.125 mg/L (≈ 0.125 µM); MIC ([3]; Aspergillus flavus, ATCC204304): 0.5 mg/L (≈ 0.502 µM); MIC ([4]; Aspergillus fumigatus, ATCC204305): 0.5 mg/L (≈ 0.502 µM)
4 | C[C@@H]1[C@H](O)[C@@H](C)/C=C/C=C/C=C/C=C/C=C/C=C/C=C/[C@H](O[C@@H]2O[C@H](C)[C@@H](O)[C@H](N)[C@@H]2O)C[C@@H]2O[C@](O)(C[C@@H](O)C[C@@H](O)[C@H](O)CC[C@@H](O)C[C@@H](O)CC(=O)O[C@H]1C)C[C@H](O)[C@H]2NC(=O)NNC(=O)NO [I-218] | > 200 | 0.25 (≈ 0.247 µM) | 0.5 (≈ 0.494 µM) | 1 (≈ 0.988 µM) | –
5 | C[C@@H]1[C@H](O)[C@@H](C)/C=C/C=C/C=C/C=C/C=C/C=C/C=C/[C@H](O[C@@H]2O[C@H](C)[C@@H](O)[C@H](N)[C@@H]2O)C[C@@H]2O[C@](O)(C[C@@H](O)C[C@@H](O)[C@H](O)CC[C@@H](O)C[C@@H](O)CC(=O)O[C@H]1C)C[C@H](O)[C@H]2NC(=O)NO [I-219] | – | – | – | – | MTD [5]: 16 mg/kg
6 | C[C@@H]1[C@H](O)[C@@H](C)/C=C/C=C/C=C/C=C/C=C/C=C/C=C/[C@H](O[C@@H]2O[C@H](C)[C@@H](O)[C@H](N)[C@@H]2O)C[C@@H]2O[C@](O)(C[C@@H](O)C[C@@H](O)[C@H](O)CC[C@@H](O)C[C@@H](O)CC(=O)O[C@H]1C)C[C@H](O)[C@H]2NC(=O)NNC(=O)C[C@H](O)CO [I-237] | > 200 | 0.5 (≈ 0.474 µM) | 0.5 (≈ 0.474 µM) | 1 (≈ 0.948 µM) | –
7 | C[C@@H]1[C@H](O)[C@@H](C)/C=C/C=C/C=C/C=C/C=C/C=C/C=C/[C@H](O[C@@H]2O[C@H](C)[C@@H](O)[C@H](N)[C@@H]2O)C[C@@H]2O[C@](O)(C[C@@H](O)C[C@@H](O)[C@H](O)CC[C@@H](O)C[C@@H](O)CC(=O)O[C@H]1C)C[C@H](O)[C@H]2NC(=O)NNC(=O)C(CO)CO [I-240] | > 200 | 0.5 (≈ 0.474 µM) | 0.5 (≈ 0.474 µM) | 1 (≈ 0.948 µM) | –
8 | C[C@@H]1[C@H](O)[C@@H](C)/C=C/C=C/C=C/C=C/C=C/C=C/C=C/[C@H](O[C@@H]2O[C@H](C)[C@@H](O)[C@H](N)[C@@H]2O)C[C@@H]2O[C@](O)(C[C@@H](O)C[C@@H](O)[C@H](O)CC[C@@H](O)C[C@@H](O)CC(=O)O[C@H]1C)C[C@H](O)[C@H]2NC(=O)NNC(=O)CCC(=O)O [I-261] | > 200 | 0.5 (≈ 0.475 µM) | 0.5 (≈ 0.475 µM) | 1 (≈ 0.949 µM) | –
9 | C[C@@H]1[C@H](O)[C@@H](C)/C=C/C=C/C=C/C=C/C=C/C=C/C=C/[C@H](O[C@@H]2O[C@H](C)[C@@H](O)[C@H](N)[C@@H]2O)C[C@@H]2O[C@](O)(C[C@@H](O)C[C@@H](O)[C@H](O)CC[C@@H](O)C[C@@H](O)CC(=O)O[C@H]1C)C[C@H](O)[C@H]2NC(=O)NNC(CO)CO [I-272] | – | – | – | – | IC50 [1, 11]: > 200 µM; MIC [2, 12]: 0.25 mg/L (≈ 0.243 µM); MIC [3, 13]: 0.5 mg/L (≈ 0.487 µM); MIC [4, 14]: 0.5 mg/L (≈ 0.487 µM)
10 | C[C@@H]1[C@H](O)[C@@H](C)/C=C/C=C/C=C/C=C/C=C/C=C/C=C/[C@H](O[C@@H]2O[C@H](C)[C@@H](O)[C@H](N)[C@@H]2O)C[C@@H]2O[C@](O)(C[C@@H](O)C[C@@H](O)[C@H](O)CC[C@@H](O)C[C@@H](O)CC(=O)O[C@H]1C)C[C@H](O)[C@H]2NC(=O)NNC[C@@H](O)C(=O)O [I-310] | – | – | – | – | IC50 [1, 11]: > 200 µM; MIC [2, 12]: 0.5 mg/L (≈ 0.48 µM); MIC [3, 13]: 0.5 mg/L (≈ 0.48 µM); MIC [4, 14]: 1 mg/L (≈ 0.96 µM)
11 | C[C@@H]1[C@H](O)[C@@H](C)/C=C/C=C/C=C/C=C/C=C/C=C/C=C/[C@H](O[C@@H]2O[C@H](C)[C@@H](O)[C@H](NC(=N)N)[C@@H]2O)C[C@@H]2O[C@](O)(C[C@@H](O)C[C@@H](O)[C@H](O)CC[C@@H](O)C[C@@H](O)CC(=O)O[C@H]1C)C[C@H](O)[C@H]2CO [I-394] | – | – | – | – | MTD [5]: > 24 mg/kg
12 | C[C@@H]1[C@H](O)[C@@H](C)/C=C/C=C/C=C/C=C/C=C/C=C/C=C/[C@H](O[C@@H]2O[C@H](C)[C@@H](O)[C@H](N)[C@@H]2O)C[C@@H]2O[C@](O)(C[C@@H](O)C[C@@H](O)[C@H](O)CC[C@@H](O)C[C@@H](O)CC(=O)O[C@H]1C)C[C@H](O)[C@H]2C(=O)NC(CO[C@H]1O[C@H](CO)[C@@H](O)[C@H](O)[C@@H]1O)CO[C@H]1O[C@H](CO)[C@@H](O)[C@H](O)[C@@H]1O [I-396] | – | – | – | – | MTD [5]: 16 mg/kg; IC50 [6]: > 100 µM
